Values of other authors as cited in patent US20190124865A1, “APPARATUS AND METHOD FOR INACTIVATING PLANT PATHOGENS WHILE STIMULATING PLANT GROWTH VIA SELECTIVE APPLICATION OF OXYGEN/OZONE GAS MIXTURES, AND CARBON DIOXIDE, IN A MULTI COMPARTMENT SYSTEM” (priority 2017, published 2019).

Legend:
plants = details: 30% increase in ambient carbon dioxide, in the order of 100 ppm to 150 ppm
[1] = gaseous milieu, room temperature
coliform bacteria = details: ozone 5% per volume admixed with oxygen
staphylococcus aureus = details: ozone 5% per volume admixed with oxygen
Aeromonas hydrophilia = details: ozone 5% per volume admixed with oxygen
fungal species = details: ozone 5% by volume, given time

| Compound | increase in plant growth (plants) [%] | rate of reversion to pure oxygen [1] | inactivation of coliform bacteria (coliform bacteria) | inactivation of staphylococcus aureus (staphylococcus aureus) | inactivation of Aeromonas hydrophilia (Aeromonas hydrophilia) | effect on fungal species (fungal species) |
| --- | --- | --- | --- | --- | --- | --- |
| O=C=O [carbon dioxide] | 30 | – | – | – | – | – |
| O=[O+][O-] [Ozone, ozone] | – | about 50 % per hour | rapidly inactivates | rapidly inactivates | rapidly inactivates | inexorable distress to any and all fungal species, leading to their demise |
